Experimental data from US11345666B2, “Phenyl and pyridinyl substituted imidazoles as modulators of RORγT” (Janssen Pharmaceutica NV, priority 2018, dated 2022).
Marks after values point to notes of the source that are not given here.

Legend:
[1] = target: full-length human RORγt (Homo sapiens (Human), UniProt P51449); test: RORγt (full-length human) reporter assay, conditions A or B; assay type: cell-based; details: for IC50: HEK293T cells, read-out: RORγt (FL) Reporter Assay A or B, IC50; for inhibition at 6 µM: read-out: RORγt (FL) Reporter Assay A or B, % inhibition @ 6 μM, 6 μM compound concentration; for inhibition at 3 µM / RORγt (FL) Reporter Assay A or B, % inhibition: 3 μM compound concentration (*)
Chain of full-length human RORγt (P51449 other isoform, or with tags, fused parts or gaps): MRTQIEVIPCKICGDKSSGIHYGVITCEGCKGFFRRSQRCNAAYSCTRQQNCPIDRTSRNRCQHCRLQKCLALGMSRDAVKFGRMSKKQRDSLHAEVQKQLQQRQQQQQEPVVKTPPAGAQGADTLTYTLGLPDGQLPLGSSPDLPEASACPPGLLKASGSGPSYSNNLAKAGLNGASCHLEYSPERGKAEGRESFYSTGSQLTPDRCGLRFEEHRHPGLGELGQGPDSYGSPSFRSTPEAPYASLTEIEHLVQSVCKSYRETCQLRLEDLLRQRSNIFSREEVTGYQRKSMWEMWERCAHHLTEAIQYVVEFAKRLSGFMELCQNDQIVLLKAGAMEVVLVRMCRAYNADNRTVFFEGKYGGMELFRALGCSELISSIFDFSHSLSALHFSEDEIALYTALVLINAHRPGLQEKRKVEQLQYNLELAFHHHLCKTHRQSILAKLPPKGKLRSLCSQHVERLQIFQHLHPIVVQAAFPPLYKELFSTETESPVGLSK
Procedure, shortened: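 HEK293T cells transiently co-transfected (PEI) with GAL4-DBD–RORγt, GAL4-firefly luciferase and CMV-Renilla reporters; condition A 35,000 cells/well, 170.5 ng DNA/well; condition B 8750 cells/well, 42.6 ng DNA/well.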

[2] = target: human RORγt ligand binding domain (RORγt LBD) (Homo sapiens (Human), UniProt P51449); test: RORγt ThermoFluor assay
Chain of human RORγt ligand binding domain (RORγt LBD) (P51449 other isoform, or with tags, fused parts or gaps): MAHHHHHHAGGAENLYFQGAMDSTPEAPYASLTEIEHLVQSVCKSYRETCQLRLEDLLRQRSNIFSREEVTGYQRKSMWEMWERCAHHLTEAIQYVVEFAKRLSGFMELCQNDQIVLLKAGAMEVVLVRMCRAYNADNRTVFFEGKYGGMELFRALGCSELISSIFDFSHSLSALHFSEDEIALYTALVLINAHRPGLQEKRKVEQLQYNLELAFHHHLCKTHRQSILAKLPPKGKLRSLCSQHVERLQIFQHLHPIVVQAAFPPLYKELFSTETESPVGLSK
Procedure, shortened: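 Thermal shift of His-tagged human RORγt LBD (0.065 mg/mL) with 60 μM 1,8-ANS in 100 mM Hepes pH 7.0, 10 mM NaCl, 2.5 mM GSH, 0.002% Tween-20, heated at 1° C./min. Compounds in 1:2 series from a 10 mM DMSO stock; KD estimated from ΔTm using protein unfolding thermodynamics.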

[3] = read-out: RORγt (FL) Reporter Assay A or B, % inhibition

SMILES | IC50 [1] | Kd [2] | inhibition at 3 µM [1, 3] | other results
CCc1nc(C(=O)NC[C@H]2CC[C@H](S(C)(=O)=O)CC2)c(C)n1-c1ncc(CCCC(F)(F)F)cc1OC(F)F [Example 51, 1-(3-(Difluoromethoxy)-5-(4,4,4-trifluorobutyl)pyridin-2-yl)-2-ethyl-5-methyl-N-(((1r,4r)-4-(methylsulfonyl)cyclohexyl)methyl)-1H-imidazole-4-carboxamide] | 140 nM | 120 nM | – | inhibition at 6 µM [1]: 84%
CCc1nc(C(=O)NC[C@H]2CC[C@H](S(C)(=O)=O)CC2)c(Cl)n1-c1ncc(CC(C(F)(F)F)C(F)(F)F)cc1OC(F)F [Example 63, 5-Chloro-1-(3-(difluoromethoxy)-5-(3,3,3-trifluoro-2-(trifluoromethyl)propyl)pyridin-2-yl)-2-ethyl-N-(((1r,4r)-4-(methylsulfonyl)cyclohexyl)methyl)-1H-imidazole-4-carboxamide] | 47 nM | 7.3 nM | 95% | –
CCc1nc(C(=O)NC[C@H]2CC[C@H](S(=O)(=O)NC)CC2)c(Cl)n1-c1ncc(CC(C)(C)C(F)(F)F)cc1OC(F)F [Example 68, 5-Chloro-1-(3-(difluoromethoxy)-5-(3,3,3-trifluoro-2,2-dimethylpropyl)pyridin-2-yl)-2-ethyl-N-(((1r,4r)-4-(N-methylsulfamoyl)cyclohexyl)methyl)-1H-imidazole-4-carboxamide] | 50 nM | 3.7 nM | – | RORγt (FL) Reporter Assay A or B, % inhibition [1]: 103* %
CCc1nc(C(=O)NC[C@H]2CC[C@H](S(=O)(=O)N(C)C)CC2)c(Cl)n1-c1ncc(CC(C)(C)C(F)(F)F)cc1OC(F)F [Example 70, 5-Chloro-1-(3-(difluoromethoxy)-5-(3,3,3-trifluoro-2,2-dimethylpropyl)pyridin-2-yl)-N-(((1r,4r)-4-(N,N-dimethylsulfamoyl)cyclohexyl)methyl)-2-ethyl-1H-imidazole-4-carboxamide] | 350 nM | 320 nM | – | RORγt (FL) Reporter Assay A or B, % inhibition [1]: 88* %
CCc1nc(C(=O)NC[C@H]2CC[C@H](S(C)(=O)=O)CC2)c(Cl)n1-c1ncc(CC(C)(C)C(F)(F)F)cc1C [Example 74, 5-Chloro-2-ethyl-1-(3-methyl-5-(3,3,3-trifluoro-2,2-dimethylpropyl)pyridin-2-yl)-N-(((1r,4r)-4-(methylsulfonyl)cyclohexyl)methyl)-1H-imidazole-4-carboxamide] | 92 nM | 34 nM | 116% | –
CCc1cc(CC(C)(C)C(F)(F)F)cnc1-n1c(CC)nc(C(=O)NC[C@H]2CC[C@H](S(C)(=O)=O)CC2)c1Cl [Example 75, 5-Chloro-2-ethyl-1-(3-ethyl-5-(3,3,3-trifluoro-2,2-dimethylpropyl)pyridin-2-yl)-N-(((1r,4r)-4-(methylsulfonyl)cyclohexyl)methyl)-1H-imidazole-4-carboxamide] | 59 nM | 8.3 nM | 110% | –
CCc1nc(C(=O)NC[C@H]2CC[C@H](S(C)(=O)=O)CC2)c(C)n1-c1ncc(CC(C(F)(F)F)C(F)(F)F)cc1OC(F)F [Example 77, 1-(3-(Difluoromethoxy)-5-(3,3,3-trifluoro-2-(trifluoromethyl)propyl)pyridin-2-yl)-2-ethyl-5-methyl-N-(((1r,4r)-4-(methylsulfonyl)cyclohexyl)methyl)-1H-imidazole-4-carboxamide] | 77 nM | 20 nM | 101% | –
CCc1nc(C(=O)NC[C@]2(O)CC[C@@H](S(C)(=O)=O)CC2)cn1-c1c(F)cc(CC(C)C)cc1F [Example 81, 1-(2,6-Difluoro-4-isobutylphenyl)-2-ethyl-N-(((1s,4s)-1-hydroxy-4-(methylsulfonyl)cyclohexyl)methyl)-1H-imidazole-4-carboxamide] | 1200 nM | 260 nM | – | inhibition at 6 µM [1]: 27%
CCc1nc(C(=O)NC[C@H]2CC[C@H](S(C)(=O)=O)CC2)cn1-c1c(F)cc(CC(C)C)cc1F [Example 82, 1-(2,6-Difluoro-4-isobutylphenyl)-2-ethyl-N-(((1r,4r)-4-(methylsulfonyl)cyclohexyl)methyl)-1H-imidazole-4-carboxamide] | 370 nM | 150 nM | – | inhibition at 2 µM ([1]; 2 μM compound concentration (**), read-out: RORγt (FL) Reporter Assay A or B, % inhibition): 44%
CCc1nc(C(=O)NC[C@]2(O)CC[C@@H](S(C)(=O)=O)CC2)cn1-c1c(F)cc(CC(C)C(F)(F)F)cc1F (stereo partly drawn) [Example 84, 1-(2,6-Difluoro-4-(3,3,3-trifluoro-2-methylpropyl)phenyl)-2-ethyl-N-(((1s,4s)-1-hydroxy-4-(methylsulfonyl)cyclohexyl)methyl)-1H-imidazole-4-carboxamide] | 2000 nM | 2200 nM | – | inhibition at 6 µM [1]: 35%
CCc1nc(C(=O)NC[C@H]2CC[C@H](S(C)(=O)=O)CC2)c(Cl)n1-c1c(F)cc(CC(C)C(F)(F)F)cc1F (stereo partly drawn) [Example 85, 5-Chloro-1-(2,6-difluoro-4-(3,3,3-trifluoro-2-methylpropyl)phenyl)-2-ethyl-N-(((1r,4r)-4-(methylsulfonyl)cyclohexyl)methyl)-1H-imidazole-4-carboxamide] | 23 nM | 8.2 nM | – | inhibition at 0.22 µM ([1]; 0.22 μM compound concentration (******), read-out: RORγt (FL) Reporter Assay A or B, % inhibition): 63%
CCc1nc(C(=O)NC[C@]2(O)CC[C@@H](S(C)(=O)=O)CC2)c(Cl)n1-c1c(F)cc(CC(C)C(F)(F)F)cc1F (stereo partly drawn) [Example 88, 5-Chloro-1-(2,6-difluoro-4-(3,3,3-trifluoro-2-methylpropyl)phenyl)-2-ethyl-N-(((1s,4s)-1-hydroxy-4-(methylsulfonyl)cyclohexyl)methyl)-1H-imidazole-4-carboxamide] | 46 nM | 17 nM | – | inhibition at 0.67 µM ([1]; 0.67 μM compound concentration (****), read-out: RORγt (FL) Reporter Assay A or B, % inhibition): 67%

Now from value to compound, other results behind:

IC50 [1] | Kd [2] | inhibition at 3 µM [1, 3] | SMILES | other results
28 nM | 3.1 nM | – | CCc1nc(C(=O)NC[C@]2(O)CC[C@@H](S(C)(=O)=O)CC2)c(Cl)n1-c1ncc(CC(C)(C)C(F)(F)F)cc1OC(F)F [Example 46, 5-Chloro-1-(3-(difluoromethoxy)-5-(3,3,3-trifluoro-2,2-dimethylpropyl)pyridin-2-yl)-2-ethyl-N-(((1s,4s)-1-hydroxy-4-(methylsulfonyl)cyclohexyl)methyl)-1H-imidazole-4-carboxamide] | inhibition at 6 µM [1]: 97%
14 nM | 5.8 nM | – | CCc1nc(C(=O)NC[C@H]2CC[C@H](S(C)(=O)=O)CC2)c(C)n1-c1ncc(CC(C)(C)C(F)(F)F)cc1OC(F)F [Example 49, 1-(3-(Difluoromethoxy)-5-(3,3,3-trifluoro-2,2-dimethylpropyl)pyridin-2-yl)-2-ethyl-5-methyl-N-(((1r,4r)-4-(methylsulfonyl)cyclohexyl)methyl)-1H-imidazole-4-carboxamide] | inhibition at 6 µM [1]: 94%
11 nM | 2.5 nM | 84% | Cc1nc(C(=O)NC[C@H]2CC[C@H](S(C)(=O)=O)CC2)c(C#N)n1-c1ccc(CC(C)(C)C(F)(F)F)cc1OC(F)F [Example 53, 5-Cyano-1-(2-(difluoromethoxy)-4-(3,3,3-trifluoro-2,2-dimethylpropyl)phenyl)-2-methyl-N-(((1r,4r)-4-(methylsulfonyl)cyclohexyl)methyl)-1H-imidazole-4-carboxamide] | –
35 nM | 11 nM | – | Cc1nc(C(=O)NC[C@]2(O)CC[C@@H](S(C)(=O)=O)CC2)c(C#N)n1-c1ccc(CC(C)(C)C(F)(F)F)cc1OC(F)F [Example 54, 5-Cyano-1-(2-(difluoromethoxy)-4-(3,3,3-trifluoro-2,2-dimethylpropyl)phenyl)-N-(((1s,4s)-1-hydroxy-4-(methylsulfonyl)cyclohexyl)methyl)-2-methyl-1H-imidazole-4-carboxamide] | inhibition at 1 µM ([1]; 1 μM compound concentration (***), read-out: RORγt (FL) Reporter Assay A or B, % inhibition): 83%
89 nM | 19 nM | 100% | CCc1nc(C(=O)NC[C@]2(O)CC[C@@H](S(C)(=O)=O)CC2)c(Cl)n1-c1ncc(CC(C(F)(F)F)C(F)(F)F)cc1OC(F)F [Example 62, 5-Chloro-1-(3-(difluoromethoxy)-5-(3,3,3-trifluoro-2-(trifluoromethyl)propyl)pyridin-2-yl)-2-ethyl-N-(((1s,4s)-1-hydroxy-4-(methylsulfonyl)cyclohexyl)methyl)-1H-imidazole-4-carboxamide] | –
39 nM | 7.2 nM | 102% | CCc1nc(C(=O)NC[C@H]2CC[C@H](S(N)(=O)=O)CC2)c(Cl)n1-c1ncc(CC(C)(C)C(F)(F)F)cc1OC(F)F [Example 69, 5-Chloro-1-(3-(difluoromethoxy)-5-(3,3,3-trifluoro-2,2-dimethylpropyl)pyridin-2-yl)-2-ethyl-N-(((1r,4r)-4-sulfamoylcyclohexyl)methyl)-1H-imidazole-4-carboxamide] | –
440 nM | 110 nM | 76% | CCc1nc(C(=O)NC[C@]2(O)CC[C@@H](S(C)(=O)=O)CC2)c(C)n1-c1ncc(CC(C(F)(F)F)C(F)(F)F)cc1OC(F)F [Example 76, 1-(3-(Difluoromethoxy)-5-(3,3,3-trifluoro-2-(trifluoromethyl)propyl)pyridin-2-yl)-2-ethyl-N-(((1s,4s)-1-hydroxy-4-(methylsulfonyl)cyclohexyl)methyl)-5-methyl-1H-imidazole-4-carboxamide] | –
